The values that follow come from PMC8213057, “Targeting ALK2: An Open Science Approach to Developing Therapeutics for the Treatment of Diffuse Intrinsic Pontine Glioma” (Journal of Medicinal Chemistry, 2020).

In one test the target is CDK14/cyclin Y (PFTK1) (Homo sapiens, UniProt O94921). Particulars: 1 μM; Run 1, Run 2.
The next test deals with T1, PKCnu/PRKD3 (Homo sapiens, UniProt O94806).
T1 sequence (O94806 1-890): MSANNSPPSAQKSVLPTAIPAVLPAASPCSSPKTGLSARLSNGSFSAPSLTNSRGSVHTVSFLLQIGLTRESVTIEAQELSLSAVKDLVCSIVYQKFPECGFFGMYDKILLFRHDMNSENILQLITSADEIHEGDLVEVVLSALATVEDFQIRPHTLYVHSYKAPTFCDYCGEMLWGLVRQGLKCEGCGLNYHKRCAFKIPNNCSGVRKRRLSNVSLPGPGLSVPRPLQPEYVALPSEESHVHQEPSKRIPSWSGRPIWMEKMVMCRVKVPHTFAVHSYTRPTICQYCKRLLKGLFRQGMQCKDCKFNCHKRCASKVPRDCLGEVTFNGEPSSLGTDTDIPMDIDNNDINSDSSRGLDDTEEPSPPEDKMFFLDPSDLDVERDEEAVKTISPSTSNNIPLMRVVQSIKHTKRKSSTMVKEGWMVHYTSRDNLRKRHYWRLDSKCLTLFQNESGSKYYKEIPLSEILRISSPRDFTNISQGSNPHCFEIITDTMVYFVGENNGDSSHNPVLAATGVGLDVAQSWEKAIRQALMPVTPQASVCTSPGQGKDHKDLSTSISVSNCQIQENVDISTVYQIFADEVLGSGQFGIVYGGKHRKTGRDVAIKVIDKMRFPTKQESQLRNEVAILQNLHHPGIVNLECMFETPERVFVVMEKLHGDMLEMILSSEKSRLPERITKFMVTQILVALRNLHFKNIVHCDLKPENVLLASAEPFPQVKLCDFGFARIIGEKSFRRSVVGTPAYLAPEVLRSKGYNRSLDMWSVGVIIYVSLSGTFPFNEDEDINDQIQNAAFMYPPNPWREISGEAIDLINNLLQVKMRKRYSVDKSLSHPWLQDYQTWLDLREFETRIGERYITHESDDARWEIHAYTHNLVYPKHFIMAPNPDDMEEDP
As to conditions: 1 μM; Run 1, Run 2.

The target in a further test is ERN2/IRE2 (Homo sapiens, UniProt Q76MJ5). As to conditions: 1 μM; Run 1, Run 2.
Sequence of ERN2/IRE2 (Q76MJ5 35-926): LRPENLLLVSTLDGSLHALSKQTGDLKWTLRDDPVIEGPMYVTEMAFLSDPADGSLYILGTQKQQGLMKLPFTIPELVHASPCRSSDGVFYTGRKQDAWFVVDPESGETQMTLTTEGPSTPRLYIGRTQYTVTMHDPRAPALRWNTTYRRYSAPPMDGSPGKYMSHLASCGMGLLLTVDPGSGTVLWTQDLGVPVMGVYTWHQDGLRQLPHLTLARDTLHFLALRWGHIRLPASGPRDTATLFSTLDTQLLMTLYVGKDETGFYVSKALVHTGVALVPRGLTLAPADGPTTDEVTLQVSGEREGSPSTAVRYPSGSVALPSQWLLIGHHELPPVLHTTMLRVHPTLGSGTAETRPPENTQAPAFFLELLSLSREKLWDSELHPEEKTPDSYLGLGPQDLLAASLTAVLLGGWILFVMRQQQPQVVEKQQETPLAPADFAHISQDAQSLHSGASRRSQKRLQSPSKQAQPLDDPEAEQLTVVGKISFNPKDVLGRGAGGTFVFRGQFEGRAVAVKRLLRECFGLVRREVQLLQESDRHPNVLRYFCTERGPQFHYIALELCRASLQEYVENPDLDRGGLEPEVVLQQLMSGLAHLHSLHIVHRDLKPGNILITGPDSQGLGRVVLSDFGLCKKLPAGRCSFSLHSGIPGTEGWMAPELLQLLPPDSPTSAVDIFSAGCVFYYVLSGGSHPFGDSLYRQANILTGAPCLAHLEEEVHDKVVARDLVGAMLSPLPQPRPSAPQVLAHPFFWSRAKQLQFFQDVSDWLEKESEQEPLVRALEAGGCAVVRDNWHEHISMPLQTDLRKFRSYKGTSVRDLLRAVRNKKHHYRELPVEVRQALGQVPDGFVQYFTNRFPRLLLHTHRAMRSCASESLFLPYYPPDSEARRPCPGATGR
The target in a further test is T2, NEK11 (Homo sapiens, UniProt Q8NG66).
T2 sequence (Q8NG66 1-645): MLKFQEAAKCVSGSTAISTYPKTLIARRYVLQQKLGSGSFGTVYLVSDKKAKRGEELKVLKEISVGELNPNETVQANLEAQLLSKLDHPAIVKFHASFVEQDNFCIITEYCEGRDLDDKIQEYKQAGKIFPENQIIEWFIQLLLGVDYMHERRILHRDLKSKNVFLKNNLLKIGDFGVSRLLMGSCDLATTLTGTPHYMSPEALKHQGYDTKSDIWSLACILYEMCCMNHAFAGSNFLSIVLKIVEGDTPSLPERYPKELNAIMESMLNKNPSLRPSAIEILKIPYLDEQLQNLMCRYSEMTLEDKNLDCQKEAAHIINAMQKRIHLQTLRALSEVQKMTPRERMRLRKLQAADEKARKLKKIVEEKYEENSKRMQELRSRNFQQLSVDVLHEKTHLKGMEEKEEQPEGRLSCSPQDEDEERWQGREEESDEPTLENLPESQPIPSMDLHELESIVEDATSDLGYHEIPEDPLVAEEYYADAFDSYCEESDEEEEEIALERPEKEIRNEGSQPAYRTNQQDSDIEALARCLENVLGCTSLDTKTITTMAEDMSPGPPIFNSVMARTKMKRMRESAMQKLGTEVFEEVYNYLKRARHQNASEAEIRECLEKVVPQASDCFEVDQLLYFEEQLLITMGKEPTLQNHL
Kind of test: biochemical. Particulars: read-out: % enzyme activity, 1 μM; Run 1, Run 2.

The target in a further test is PAK6 (Homo sapiens, UniProt Q9NQU5). As to conditions: 1 μM; Run 1, Run 2.
Sequence of PAK6 (Q9NQU5 whole entry): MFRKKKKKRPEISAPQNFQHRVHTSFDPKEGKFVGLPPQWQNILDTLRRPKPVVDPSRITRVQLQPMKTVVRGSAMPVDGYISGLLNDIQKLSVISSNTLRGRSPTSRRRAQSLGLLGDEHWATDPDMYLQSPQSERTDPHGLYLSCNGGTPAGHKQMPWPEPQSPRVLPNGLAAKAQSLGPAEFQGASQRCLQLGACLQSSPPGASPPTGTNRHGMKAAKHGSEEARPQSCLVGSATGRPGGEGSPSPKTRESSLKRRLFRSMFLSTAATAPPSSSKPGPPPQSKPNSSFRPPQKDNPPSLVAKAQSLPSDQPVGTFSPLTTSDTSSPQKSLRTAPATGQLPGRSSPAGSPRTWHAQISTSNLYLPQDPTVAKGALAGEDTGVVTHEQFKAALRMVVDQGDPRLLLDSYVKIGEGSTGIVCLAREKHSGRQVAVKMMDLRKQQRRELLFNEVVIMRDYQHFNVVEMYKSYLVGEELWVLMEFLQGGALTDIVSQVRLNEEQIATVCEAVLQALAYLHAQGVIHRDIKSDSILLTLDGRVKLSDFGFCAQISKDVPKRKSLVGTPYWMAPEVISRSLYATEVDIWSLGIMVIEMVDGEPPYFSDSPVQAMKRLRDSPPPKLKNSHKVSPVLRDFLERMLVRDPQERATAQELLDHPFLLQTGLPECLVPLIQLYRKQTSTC
The target in a further test is LYN B (Homo sapiens, UniProt P07948). Description: biochemical. Particulars: read-out: % enzyme activity, 1 μM; Run 1, Run 2.
For the next test, the target named is MLK1/MAP3K9 (Homo sapiens, UniProt P80192). Description: biochemical. As to conditions: read-out: % enzyme activity, 1 μM; Run 1, Run 2.
Sequence of MLK1/MAP3K9 (P80192 whole entry): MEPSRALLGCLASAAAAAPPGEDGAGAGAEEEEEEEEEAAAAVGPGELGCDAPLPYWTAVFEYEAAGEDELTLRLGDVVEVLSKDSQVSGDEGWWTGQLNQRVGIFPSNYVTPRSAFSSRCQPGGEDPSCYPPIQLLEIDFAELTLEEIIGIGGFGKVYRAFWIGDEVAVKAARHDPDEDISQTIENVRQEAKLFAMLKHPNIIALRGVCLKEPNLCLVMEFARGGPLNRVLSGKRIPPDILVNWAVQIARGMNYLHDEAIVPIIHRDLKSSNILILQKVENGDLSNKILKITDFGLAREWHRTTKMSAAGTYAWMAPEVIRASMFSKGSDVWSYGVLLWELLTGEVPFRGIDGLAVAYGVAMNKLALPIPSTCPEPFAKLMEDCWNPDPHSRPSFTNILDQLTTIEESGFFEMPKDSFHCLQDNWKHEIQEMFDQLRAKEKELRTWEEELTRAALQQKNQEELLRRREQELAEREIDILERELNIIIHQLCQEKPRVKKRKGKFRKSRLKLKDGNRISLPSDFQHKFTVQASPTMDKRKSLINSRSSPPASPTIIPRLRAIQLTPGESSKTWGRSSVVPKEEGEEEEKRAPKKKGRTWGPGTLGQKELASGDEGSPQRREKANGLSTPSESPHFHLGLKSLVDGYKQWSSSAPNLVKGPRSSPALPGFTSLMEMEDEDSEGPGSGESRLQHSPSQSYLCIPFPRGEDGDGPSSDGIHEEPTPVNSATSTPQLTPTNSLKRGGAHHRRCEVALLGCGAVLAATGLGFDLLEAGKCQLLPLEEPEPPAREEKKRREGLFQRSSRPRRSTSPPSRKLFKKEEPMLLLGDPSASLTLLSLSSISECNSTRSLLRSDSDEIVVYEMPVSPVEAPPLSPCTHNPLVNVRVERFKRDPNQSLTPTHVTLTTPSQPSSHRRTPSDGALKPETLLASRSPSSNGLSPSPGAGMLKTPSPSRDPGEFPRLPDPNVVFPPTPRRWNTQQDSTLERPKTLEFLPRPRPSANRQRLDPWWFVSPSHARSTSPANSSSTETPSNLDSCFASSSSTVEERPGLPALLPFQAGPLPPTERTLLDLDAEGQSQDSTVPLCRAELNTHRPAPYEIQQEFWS
The target in a further test is BLK (Homo sapiens, UniProt P51451). Description: biochemical. Particulars: read-out: % enzyme activity, 1 μM; Run 1, Run 2.
Sequence of BLK (P51451 whole entry): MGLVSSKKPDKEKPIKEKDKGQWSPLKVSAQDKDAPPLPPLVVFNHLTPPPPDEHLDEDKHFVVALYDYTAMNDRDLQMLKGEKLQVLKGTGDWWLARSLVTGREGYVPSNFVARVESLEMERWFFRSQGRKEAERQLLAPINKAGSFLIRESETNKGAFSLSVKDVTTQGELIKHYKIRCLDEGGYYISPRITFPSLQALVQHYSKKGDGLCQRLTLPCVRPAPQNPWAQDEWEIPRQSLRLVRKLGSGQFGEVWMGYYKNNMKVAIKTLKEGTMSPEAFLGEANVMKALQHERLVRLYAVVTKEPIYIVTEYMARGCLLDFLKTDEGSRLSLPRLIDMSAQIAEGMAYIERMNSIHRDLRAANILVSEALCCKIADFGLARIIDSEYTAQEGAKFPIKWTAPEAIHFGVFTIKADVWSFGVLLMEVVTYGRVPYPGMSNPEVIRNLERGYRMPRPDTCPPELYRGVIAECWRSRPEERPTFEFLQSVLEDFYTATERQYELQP
The next test addresses WNK1 (Homo sapiens, UniProt Q9H4A3). Kind of test: biochemical. As to conditions: read-out: % enzyme activity, 1 μM; Run 1, Run 2.
A further test concerns the target T3, ITK (Homo sapiens, UniProt Q08881).
T3 sequence (Q08881 1-620): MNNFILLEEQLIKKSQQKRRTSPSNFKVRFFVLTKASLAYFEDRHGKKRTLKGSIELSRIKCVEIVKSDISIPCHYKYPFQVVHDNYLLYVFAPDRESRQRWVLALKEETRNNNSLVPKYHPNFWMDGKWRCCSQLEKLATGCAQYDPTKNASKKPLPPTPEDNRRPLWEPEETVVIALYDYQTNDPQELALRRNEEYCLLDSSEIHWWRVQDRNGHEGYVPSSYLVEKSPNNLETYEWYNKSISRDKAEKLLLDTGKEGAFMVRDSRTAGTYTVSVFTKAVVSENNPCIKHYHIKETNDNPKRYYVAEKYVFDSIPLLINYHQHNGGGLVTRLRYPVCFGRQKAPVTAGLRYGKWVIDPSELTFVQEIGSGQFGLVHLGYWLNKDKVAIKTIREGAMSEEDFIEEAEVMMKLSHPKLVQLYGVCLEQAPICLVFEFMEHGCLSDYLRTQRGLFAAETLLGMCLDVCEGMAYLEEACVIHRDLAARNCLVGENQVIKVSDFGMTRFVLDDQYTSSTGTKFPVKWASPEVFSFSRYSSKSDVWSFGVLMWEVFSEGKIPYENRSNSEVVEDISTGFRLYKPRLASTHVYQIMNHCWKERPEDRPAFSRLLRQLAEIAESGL
Kind of test: biochemical. As to conditions: read-out: % enzyme activity, 1 μM; Run 1, Run 2.

The target of a further test is CK1g2 (Homo sapiens, UniProt P78368). Description: biochemical. As to conditions: read-out: % enzyme activity, 1 μM; Run 1, Run 2.
Sequence of CK1g2 (P78368 whole entry): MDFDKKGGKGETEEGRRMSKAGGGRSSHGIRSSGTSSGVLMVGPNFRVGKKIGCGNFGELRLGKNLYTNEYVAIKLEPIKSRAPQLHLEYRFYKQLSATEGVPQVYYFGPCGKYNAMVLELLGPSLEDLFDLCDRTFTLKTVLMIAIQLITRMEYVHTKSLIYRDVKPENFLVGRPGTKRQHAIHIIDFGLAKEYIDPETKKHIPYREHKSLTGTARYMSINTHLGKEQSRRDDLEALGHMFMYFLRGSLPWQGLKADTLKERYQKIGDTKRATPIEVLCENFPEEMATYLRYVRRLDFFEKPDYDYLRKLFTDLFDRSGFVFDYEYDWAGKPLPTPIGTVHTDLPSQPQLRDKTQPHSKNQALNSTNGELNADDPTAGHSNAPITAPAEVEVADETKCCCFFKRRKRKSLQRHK
For a further test, the target named is GRK6 (Homo sapiens, UniProt P43250). Kind of test: biochemical. As to conditions: read-out: % enzyme activity, 1 μM; Run 1, Run 2.
Sequence of GRK6 (P43250 whole entry): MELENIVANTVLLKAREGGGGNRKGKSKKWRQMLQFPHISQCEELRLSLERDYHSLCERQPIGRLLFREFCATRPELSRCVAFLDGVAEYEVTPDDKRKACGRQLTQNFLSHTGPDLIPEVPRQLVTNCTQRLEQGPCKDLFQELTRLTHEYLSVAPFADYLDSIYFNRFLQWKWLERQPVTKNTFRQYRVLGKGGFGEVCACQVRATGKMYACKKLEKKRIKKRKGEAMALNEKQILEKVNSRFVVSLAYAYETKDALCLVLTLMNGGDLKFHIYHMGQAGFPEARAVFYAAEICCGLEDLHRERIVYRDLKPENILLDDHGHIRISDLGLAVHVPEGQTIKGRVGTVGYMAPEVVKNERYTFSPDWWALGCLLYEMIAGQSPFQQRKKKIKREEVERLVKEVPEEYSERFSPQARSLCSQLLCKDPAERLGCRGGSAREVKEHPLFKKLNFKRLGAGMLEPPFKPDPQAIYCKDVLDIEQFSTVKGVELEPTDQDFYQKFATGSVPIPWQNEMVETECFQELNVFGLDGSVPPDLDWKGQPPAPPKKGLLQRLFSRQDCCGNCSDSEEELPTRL
The next test addresses FAK/PTK2 (Homo sapiens, UniProt Q05397). Kind of test: biochemical. As to conditions: read-out: % enzyme activity, 1 μM; Run 1, Run 2.
For a further test, the target named is PKCg (Homo sapiens, UniProt P05129). Description: biochemical. As to conditions: read-out: % enzyme activity, 1 μM; Run 1, Run 2.

“And” between values parts separate entries of the source, which are not always exact repeats. Equal values may be shown once.

Sequence of CDK14/cyclin Y (PFTK1) (O94921 whole entry): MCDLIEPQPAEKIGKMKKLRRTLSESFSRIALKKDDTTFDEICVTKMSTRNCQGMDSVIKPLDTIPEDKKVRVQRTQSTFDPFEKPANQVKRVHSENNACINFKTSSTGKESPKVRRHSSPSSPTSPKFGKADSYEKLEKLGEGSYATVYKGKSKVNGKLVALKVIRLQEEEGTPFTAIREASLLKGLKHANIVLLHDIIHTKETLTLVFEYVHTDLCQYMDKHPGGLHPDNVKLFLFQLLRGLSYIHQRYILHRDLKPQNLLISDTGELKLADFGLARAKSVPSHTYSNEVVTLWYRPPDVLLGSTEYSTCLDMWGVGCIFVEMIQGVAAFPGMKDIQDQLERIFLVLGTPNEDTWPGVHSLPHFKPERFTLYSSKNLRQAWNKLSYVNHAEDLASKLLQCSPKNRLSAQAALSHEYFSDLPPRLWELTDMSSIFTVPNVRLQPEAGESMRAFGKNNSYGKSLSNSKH
Sequence of CDK14/cyclin Y (PFTK1) (Q8ND76 whole entry partner): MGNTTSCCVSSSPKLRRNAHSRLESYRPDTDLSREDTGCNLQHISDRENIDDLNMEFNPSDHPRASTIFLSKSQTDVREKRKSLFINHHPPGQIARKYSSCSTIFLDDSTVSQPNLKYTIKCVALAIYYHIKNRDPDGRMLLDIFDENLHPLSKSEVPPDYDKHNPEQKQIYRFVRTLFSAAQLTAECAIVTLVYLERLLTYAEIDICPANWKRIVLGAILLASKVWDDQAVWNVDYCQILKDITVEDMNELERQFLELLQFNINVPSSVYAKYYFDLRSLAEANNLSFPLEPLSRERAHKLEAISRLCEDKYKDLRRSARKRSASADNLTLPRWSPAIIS

For `COc1cc(-c2cncc(-c3ccc(N4CCN(C)CC4)cc3)c2C)cc(F)c1C(N)=O` [Compound 26a, 2-Fluoro-6-methoxy-4-(4-methyl-5-(4-(4-methylpiperazin-1-yl)phenyl)pyridin-3-yl)benzamide], the “% enzyme activity” value on CDK14/cyclin Y (PFTK1) was found to be 98.24%; on PKCnu/PRKD3 it was 83.26%; at ERN2/IRE2 it was 97.32%; on PAK6, 97.22%. The remaining activity at 1 µM on NEK11 was 90.6%; at LYN B it was 99.2%; at MLK1/MAP3K9, 112%; on BLK it was 97.2%; on WNK1, 108%; on ITK it was 106%. In addition, the remaining activity at 1 µM came out at 78% on CK1g2, 109% on GRK6, 94% on FAK/PTK2 and 97% on PKCg. In the test with BRAF, this compound showed a % enzyme activity at 1 μM of 28.8%.

For `COc1cc(-c2cncc(-c3ccc(N4C[C@@H](C)N(C)[C@@H](C)C4)cc3)c2C)cc(F)c1C(N)=O` [Compound 26c, 2-Fluoro-6-methoxy-4-(4-methyl-5-(4-((3R,5S)-3,4,5-trimethylpiperazin-1-yl)phenyl)pyridin-3-yl)benzamide], the “% enzyme activity” value on CDK14/cyclin Y (PFTK1) was determined as 99.61%; on PKCnu/PRKD3, 89.59%; on ERN2/IRE2, 96.29%; at PAK6, 95.67%. The remaining activity at 1 µM came to 91.9% on NEK11; 98.2% at LYN B; 99.8% on MLK1/MAP3K9; 104% on BLK; 104% on WNK1; 102% at ITK. The remaining activity at 1 µM amounted to 87% at CK1g2, 97.1% on GRK6, 95.4% at FAK/PTK2 and 97.2% on PKCg. The % enzyme activity at 1 μM with BRAF was 41.1% and 40.5%.
